ChEMBL document CHEMBL1138649, “Urea derivatives of STI571 as inhibitors of Bcr-Abl and PDGFR kinases” (Bioorg Med Chem Lett, 2004)

Experiments:
[1] = Inhibitory concentration required to inhibit PDGFR kinase was determined
[2] = Plasma concentration after 120 minutes gavage was determined in mice after 20 mg/kg oral administration of the compound; assay type: ADME, organism-based; design: dose 20 mg/kg, route oral; settings: mouse, read-out: C120
[3] = Maximum plasma concentration time in minutes was determined in mice after 20 mg/kg oral administration of the compound; assay type: ADME, organism-based; design: dose 20 mg/kg, route oral; settings: mouse
[4] = Maximum plasma concentration was determined in mice after 20 mg/kg oral administration of the compound; assay type: ADME, organism-based; design: dose 20 mg/kg, route oral; settings: mouse
[5] = biological target: Tyrosine-protein kinase ABL1 (Homo sapiens, UniProt P00519); test: Inhibitory concentration required to inhibit Abl tyrosine kinase
[6] = biological target: T1, Breakpoint cluster region protein (Homo sapiens, UniProt P11274); test: Inhibitory concentration required to inhibit Bcr-Abl tyrosine kinase
T1 sequence (P11274 whole entry): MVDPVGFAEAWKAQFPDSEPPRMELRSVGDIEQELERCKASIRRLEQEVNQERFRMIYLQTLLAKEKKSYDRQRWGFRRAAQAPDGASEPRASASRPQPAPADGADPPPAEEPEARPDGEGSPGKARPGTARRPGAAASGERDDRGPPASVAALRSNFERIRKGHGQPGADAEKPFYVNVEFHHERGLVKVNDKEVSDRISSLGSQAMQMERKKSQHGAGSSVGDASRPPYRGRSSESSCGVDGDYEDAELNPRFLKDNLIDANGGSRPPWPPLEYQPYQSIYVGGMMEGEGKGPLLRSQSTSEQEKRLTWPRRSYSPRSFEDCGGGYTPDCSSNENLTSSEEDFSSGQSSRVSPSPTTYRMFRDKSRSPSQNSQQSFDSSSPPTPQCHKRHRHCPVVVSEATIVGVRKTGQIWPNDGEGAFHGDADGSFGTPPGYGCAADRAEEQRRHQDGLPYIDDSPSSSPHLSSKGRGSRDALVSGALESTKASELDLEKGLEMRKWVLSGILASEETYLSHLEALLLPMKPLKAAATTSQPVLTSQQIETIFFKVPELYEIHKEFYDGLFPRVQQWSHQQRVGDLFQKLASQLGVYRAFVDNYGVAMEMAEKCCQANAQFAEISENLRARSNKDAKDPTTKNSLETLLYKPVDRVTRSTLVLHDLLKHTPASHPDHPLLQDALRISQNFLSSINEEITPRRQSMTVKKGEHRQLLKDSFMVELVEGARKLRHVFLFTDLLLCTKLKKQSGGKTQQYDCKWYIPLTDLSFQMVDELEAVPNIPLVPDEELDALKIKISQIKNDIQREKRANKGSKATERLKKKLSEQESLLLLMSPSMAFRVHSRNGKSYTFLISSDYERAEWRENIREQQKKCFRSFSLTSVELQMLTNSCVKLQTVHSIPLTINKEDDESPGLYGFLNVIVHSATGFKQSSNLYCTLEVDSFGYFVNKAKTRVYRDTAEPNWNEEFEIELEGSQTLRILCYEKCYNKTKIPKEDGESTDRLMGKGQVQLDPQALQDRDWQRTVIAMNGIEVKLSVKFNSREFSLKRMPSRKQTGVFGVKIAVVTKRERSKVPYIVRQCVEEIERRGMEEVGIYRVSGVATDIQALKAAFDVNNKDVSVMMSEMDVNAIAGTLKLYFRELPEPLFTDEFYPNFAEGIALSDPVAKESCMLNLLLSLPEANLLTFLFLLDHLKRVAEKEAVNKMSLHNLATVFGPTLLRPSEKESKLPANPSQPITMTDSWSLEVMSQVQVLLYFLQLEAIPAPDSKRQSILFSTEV

Sequence of Tyrosine-protein kinase ABL1 (P00519 whole entry): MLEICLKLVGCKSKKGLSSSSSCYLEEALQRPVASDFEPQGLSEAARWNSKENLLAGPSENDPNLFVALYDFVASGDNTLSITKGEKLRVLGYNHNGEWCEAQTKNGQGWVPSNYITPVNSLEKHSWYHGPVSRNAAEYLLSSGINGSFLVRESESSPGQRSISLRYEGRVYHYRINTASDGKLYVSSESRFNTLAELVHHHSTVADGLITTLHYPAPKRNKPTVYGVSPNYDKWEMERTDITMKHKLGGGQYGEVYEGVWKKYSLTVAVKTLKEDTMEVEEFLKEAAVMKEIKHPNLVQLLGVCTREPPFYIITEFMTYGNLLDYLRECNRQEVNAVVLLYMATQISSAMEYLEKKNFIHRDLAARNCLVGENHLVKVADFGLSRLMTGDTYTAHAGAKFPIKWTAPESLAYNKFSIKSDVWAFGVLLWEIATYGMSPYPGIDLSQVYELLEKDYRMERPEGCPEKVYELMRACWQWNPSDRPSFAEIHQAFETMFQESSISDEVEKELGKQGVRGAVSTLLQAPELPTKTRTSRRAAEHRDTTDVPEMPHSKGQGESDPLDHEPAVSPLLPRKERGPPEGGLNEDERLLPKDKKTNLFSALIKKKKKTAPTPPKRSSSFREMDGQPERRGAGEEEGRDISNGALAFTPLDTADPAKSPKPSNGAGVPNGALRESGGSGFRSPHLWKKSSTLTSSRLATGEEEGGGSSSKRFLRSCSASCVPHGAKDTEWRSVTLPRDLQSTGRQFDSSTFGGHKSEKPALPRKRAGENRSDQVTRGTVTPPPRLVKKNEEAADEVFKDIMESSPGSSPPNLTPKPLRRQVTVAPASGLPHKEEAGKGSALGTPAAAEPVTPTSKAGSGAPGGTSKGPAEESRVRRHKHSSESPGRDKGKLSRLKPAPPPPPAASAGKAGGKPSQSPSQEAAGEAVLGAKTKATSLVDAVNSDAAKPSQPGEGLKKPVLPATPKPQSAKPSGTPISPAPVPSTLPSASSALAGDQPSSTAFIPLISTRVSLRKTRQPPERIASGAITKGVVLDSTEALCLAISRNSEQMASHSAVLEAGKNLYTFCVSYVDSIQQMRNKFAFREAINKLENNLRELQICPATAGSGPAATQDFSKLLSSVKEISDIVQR

Cc1ccc(NC(=O)N2CCCCC2)cc1Nc1nccc(-c2cccnc2)n1
IC50 [1]: 63 nM
concentration at 2 h [2]: 510 nM
Tmax [3]: 30 min
Cmax [4]: 4320 nM

Cc1ccc(NC(=O)N(C)CCCO)cc1Nc1nccc(-c2cccnc2)n1
IC50 [1]: > 3000 nM

Cc1ccc(NC(=O)Nc2cccc(Cl)c2)cc1Nc1nccc(-c2cccnc2)n1
IC50 [1]: 17 nM
IC50 [5]: 175 nM
IC50 ([6]; read-out: IC50): 1000 nM

Cc1ccc(NC(=O)NCc2ccc(N(C)C)cc2)cc1Nc1nccc(-c2cccnc2)n1
IC50 [1]: 236 nM

Cc1ccc(NC(=O)NCCN2CCCC2)cc1Nc1nccc(-c2cccnc2)n1
IC50 [1]: 655 nM
IC50 ([6]; read-out: IC50): > 9000 nM

CCN(CC)c1cccc(NC(=O)Nc2ccc(C)c(Nc3nccc(-c4cccnc4)n3)c2)c1
IC50 [1]: 47 nM
IC50 [5]: 280 nM
IC50 ([6]; read-out: IC50): > 1000 nM

Cc1ccc(NC(=O)N2CCC(N3CCCC3)CC2)cc1Nc1nccc(-c2cccnc2)n1
IC50 [1]: 176 nM

Cc1ccc(NC(=O)NCCCN(C)C)cc1Nc1nccc(-c2cccnc2)n1
IC50 [1]: > 1600 nM

Cc1ccc(NC(=O)Nc2cccc(N3CCCC3)c2)cc1Nc1nccc(-c2cccnc2)n1
IC50 [1]: > 2500 nM

Cc1ccc(NC(=O)Nc2cccnc2)cc1Nc1nccc(-c2cccnc2)n1
IC50 [1]: 96 nM
IC50 [5]: 1000 nM

Cc1ccc(NC(=O)NCCCO)cc1Nc1nccc(-c2cccnc2)n1
IC50 [1]: > 3000 nM

Cc1ccc(NC(=O)Nc2ccccc2CN(C)C2CCCCC2)cc1Nc1nccc(-c2cccnc2)n1
IC50 [1]: 100 nM
IC50 [5]: 870 nM

Cc1ccc(NC(=O)N2CCN(Cc3ccncc3)CC2)cc1Nc1nccc(-c2cccnc2)n1
IC50 [1]: 256 nM

Cc1ccc(NC(=O)NCCCN2CCOCC2)cc1Nc1nccc(-c2cccnc2)n1
IC50 [1]: 414 nM

Cc1ccc(NC(=O)Nc2cccc(CN3CCN(C)CC3)c2)cc1Nc1nccc(-c2cccnc2)n1
IC50 [1]: 192 nM

Cc1ccc(NC(=O)Nc2cccc3[nH]ncc23)cc1Nc1nccc(-c2cccnc2)n1
IC50 [1]: 375 nM

Cc1ccc(NC(=O)NCCCn2ccnc2)cc1Nc1nccc(-c2cccnc2)n1
IC50 [1]: > 1300 nM

Cc1ccc(NC(=O)Nc2ccc(N(C)C)cc2)cc1Nc1nccc(-c2cccnc2)n1
IC50 [1]: 1730 nM
IC50 [5]: > 5000 nM
IC50 ([6]; read-out: IC50): > 10000 nM

Cc1ccc(NC(=O)Nc2cccc(N(C)C)c2)cc1Nc1nccc(-c2cccnc2)n1
IC50 [1]: 26 nM
IC50 [5]: 56 nM
IC50 [6]: 573 nM
concentration at 2 h [2]: 300 nM
Tmax [3]: 30 min
Cmax [4]: 1370 nM

Cc1ccc(NC(=O)N2CCN(C)CC2)cc1Nc1nccc(-c2cccnc2)n1
IC50 [1]: 132 nM
IC50 ([6]; read-out: IC50): > 5000 nM

Cc1ccc(NC(=O)Nc2cccc3ncccc23)cc1Nc1nccc(-c2cccnc2)n1
IC50 [1]: 64 nM
concentration at 2 h [2]: 50 nM
Tmax [3]: 30 min
Cmax [4]: 170 nM

CCN(CC)c1ccc(NC(=O)Nc2ccc(C)c(Nc3nccc(-c4cccnc4)n3)c2)cc1
IC50 [1]: 2020 nM
IC50 [5]: > 3400 nM
IC50 ([6]; read-out: IC50): > 10000 nM
